In publication PMC7996082, “The translocator protein ligands as mitochondrial functional modulators for the potential anti-Alzheimer agents” (Journal of Enzyme Inhibition and Medicinal Chemistry, 2021):
Like-named read-outs stand apart in the source and are kept apart here.

Key:
[1] = test system: HT22 cells treated with Aβ; test: Cellular ROS assay (DCFDA): inhibition of Aβ-induced ROS generation; type: cell-based, mouse; details: for inhibition at 5 µM: Mus musculus, HT-22, 5 μM compound; for ROS Inhibition (%): 5 μM compound
Procedure: Among 56 compounds, 23 compounds were selected and further tested for the luciferase-based ATP assay. […] Thus, we chose these two compounds and further evaluated their biological activity by measuring cell viability and reactive oxygen species (ROS) production. The effects on cell viability of each compound under Aβ-induced cytotoxicity were determined by measuring the metabolic activity of NAD(P)H-dependent cellular oxidoreductases using the 3–(4,5-dimethylthiazol-2-yl)-2,5-diphenyl-tetrazolium bromide (MTT) dye. To measure cellular ROS levels, we used a fluorescence indicator, 2′,7′-dichlorofluorescein diacetate (DCFDA), and calculated the percent inhibition of ROS generation by applying the same method used for MTT assays. Compound 7 inhibited Aβ-induced ROS generation (97% at 5 µM) almost to the level of the untreated control (Table 1). […] On the basis of the in vitro activity, we selected compound 7 as the best hit from the initial screening library.

[2] = MTT assay: HT22 cell viability with compound alone; type: cell-based, mouse; details: mouse, HT22 cells; HT22 cell viability after 24 h of treatment with 5 μM compound, no Aβ
Procedure: (§1) To a clear 96-well plate (FALCON), the cultured HT-22 cells were seeded in a number of 5,000 per well 24 h prior to the assay. A solution of each test compound (5 µM, 25 µL) was added to each well. After 24 h of incubation at 37 °C, the cells were treated with a 10 µL of MTT solution (3–(4,5-dimethylthiazol-2-yl)-2,5-diphenyltetrazolium bromide, Sigma-Aldrich), incubated for 2 h at 37 °C, and were treated with 135 µL of MTT solubilising solution (10% Triton-X 100 in isopropanol with 0.1 M HCl) for 2 h at 37 °C. The % values of cell viability were determined by using the optical density (OD) values at 560 nm, and normalised by taking the vehicle control (5 µM of DMSO) as […].

[3] = test system: transgenic AD model mice (APPswe/PSEN1dE9); test: Contextual fear conditioning test in transgenic AD model mice; type: in vivo, mouse; details: Tg AD model mice, 30 mg/kg daily, 1 month, PO; 30 mg/kg
Procedure: (§2) The acute AD mice model was prepared by administration of Aβ1-42 solution (10% DMSO/90% PBS) to male ICR mice (6 weeks old, 30 − 33 g) via intracerebroventricular (ICV) injection (Aβ1-42 dose: 500 pmol/mouse) as described previously. The wild type mice (B6C3F1) and double APP/PS1 transgenic mice (Tg AD mice model; APPswe/PSEN1dE9) were purchased from Jackson Laboratory (Bar Harbour, ME, USA). The Tg AD model mice were 11 months old at the beginning of the behaviour test, and were housed for 1 month in a room under controlled temperature and fed ad libitum. The behaviour tests were conducted during daytime in air-controlled and soundproof experiment room. The animal experiments were abided by the guidelines of the Institutional Animal Care and Use Committee of Korea Institute of Science and Technology.
To the Tg mice of the AD model (n = 7 per group), each test compound (30 mg/kg) was orally administrated daily for 1 month. […] Freezing response was measured by the fear conditioning system without application of CS or US.
In addition, we assessed recovery effects of compound 7 by performing contextual fear conditioning tests.[40] Healthy mice show higher number of total freezing, which is an index of fear learning and memory of rodents; therefore, the number of total freezing responses under fear-relevant stimuli was measured with the compound-treated Tg AD model mice. […]

[4] = test system: transgenic AD model mice (APPswe/PSEN1dE9); test: Y-maze spontaneous alternation test in transgenic AD model mice; type: in vivo, mouse; details: Tg APPswe/PSEN1dE9 mice, 30 mg/kg daily, 1 month, PO
[5] = test system: acute AD model mice (Aβ1-42 ICV injected ICR mice); test: Y-maze spontaneous alternation test in acute AD model mice; type: in vivo, mouse; details: 30 mg/kg daily, 6 days, i.p.
Procedure: as §2
To the mice of the acute AD model (n = 7 per group), each test compound (test compound in 20% cyclodextrin, 30 mg/kg) was […] injected daily for 6 days. The Y-maze spontaneous alternation test was performed 1 day after the administration of each test compound. The Y maze was made of three equally spaced black plastic arms (40 L × 10 W × 12 H cm) positioned at an equal angle. Each mouse was placed at the end of one arm and allowed to move freely through the maze for 8 min, and the sequence of arm entries was recorded. The arm entry of the mouse was counted when the all four limbs were within an arm. A set of entries into all three arms is considered as a spontaneous alternation. The spontaneous alternation (%) was calculated by the following equation: Spontaneous alternation (%)=100x[number of alternations/(total number of arm entries – 2)]
We evaluated in vivo activity of 7 and 14 in an acute AD mouse model. The acute AD model mice were generated by the administration of Aβ1-42 peptide (500 pmol) according to the previously reported method, and each compound (30 mg/kg daily) was administered intraperitoneally for 6 days. Piracetam (30 mg/kg daily) was also administered in parallel for comparison. The Y-maze spontaneous alternation tests were performed to measure the recovery of learning and memory deficit in acute AD model mice[38]^,[39]. […] We believe that the treatment of 7 was beneficial for ameliorating Aβ-induced cognitive impairments.

[6] = test system: TSPO; details: cited from earlier work
[7] = test system: HT-22 (mouse hippocampal cells) cells treated with Aβ; test: JC-1 assay: recovery of mitochondrial membrane potential (ΔΨm) after Aβ; type: cell-based; details: 5 μM compound, 5 μM Aβ, HT22 cells; 0% = Aβ-induced damaged condition, 100% = normal condition
Procedure: Thirty thousand HT-22 cells per well were seeded into a clear 96-well plate (FALCON) at 200 µL per well one day prior to assay. 750 mM of JC-1 (Stratagene) in DMSO stock solution was dissolved into phenol red-free Opti-MEM (GIBCO) medium to make final concentration of 7.5 mM JC-1 per well. Medium was removed from the plate, and 100 µL per well of JC-1 was added. The sample plates were incubated for 1 h and 15 min at 37 °C and washed twice with 100 µL per well of PBS. Subsequently, cells were treated with a 25 µL solution of each compound at 10 µM in Opti-MEM and incubated at 37 °C for 10 min followed by addition of a 25 µL of Aβ (American peptide, 1-42) solution at 10 µM. Fluorescence was measured at every one hour for three hours at ex/em 530 nm/580 nm (“red”) and ex/em 485 nm/530 nm (“green”) by using the Flexstation® 3 (Molecular Devices, USA) reader. The ratio of green to red fluorescence was calculated and normalised by taking the percent changes using vehicle control as 100%.
The selected 56 compounds were purchased and tested by in vitro cell-based assays. Four different cell-based assays (JC-1, MTT, ATP production, and cellular ROS assays) were carried out sequentially. First, the JC-1 assay was performed to screen all 56 compounds, VH001–VH056 (Supplementary Table S1). Since mitochondrial membrane depolarisation is one of the distinct signs of mPTP opening, the mitochondrial uptake of a fluorescent JC-1 dye (5,59,6,69-tetrachloro-1,19,3,39-tetraethylbenzimidazolocarbocyanine iodide) was measured to evaluate the effects of each compound on the mitochondrial membrane potential (ΔΨm). HT22 cells, a mouse hippocampal cell line, were treated with 5 µM of Aβ, incubated with each compound at the same concentration of 5 µM, and subsequently treated with JC-1. On the basis of changes in the red/green fluorescence intensity ratio between the cells treated with Aβ and control, the percent recovery of ΔΨm for each compound was calculated and normalised to the ΔΨm of healthy cells as 100%.
Compd Structure ∆Ψm at 5 Compd Structure ∆Ψm at 5 […]
a After the treatment of each compound (5 μM) and Aβ (5 μM) in HT22 cell, the increase of fluorescence ratio (green/red) was measured and normalized by taking the change of the ratio between 0% (Aβ-induced damaged condition) and 100% (normal condition in the absence of Aβ).

[8] = test system: HT22 cells; test: MTT assay: HT22 cell viability with compound alone; type: cell-based, mouse; details: HT22 cell viability after 24 h of treatment with 5 μM compound, no Aβ
Procedure: as §1

NC(=O)CN1CCCC1=O [Piracetam, piracetam, reference compound]
inhibition at 5 µM [1]: 129% | viability at 24 h, 5 µM [2]: 132% | Contextual fear conditioning: percent recovery of freezing [3]: −2% | Recovery of Y-maze spontaneous alternations [4]: 33% | Recovery of Y-maze spontaneous alternations [5]: 20%

CC(=O)N(Cc1ccccc1OC(C)C)c1ccc(Cl)cc1Oc1ccccc1 [Compound 3, N-(4-chloro-2-phenoxyphenyl)-N-(2-isopropoxybenzyl)acetamide]
IC50 ([6]; TSPO binding affinity ref 31): 0.92 nM

CCCCN(CCCC)C(=O)Cc1c(-c2ccc(Cl)cc2)nc2c(Cl)cc(Cl)cn12 [Compound 2, N,N-dibutyl-2–(6,8-dichloro-2–(4-chloro-phenyl)imidazo[1,2-a]pyridin-3-yl)acetamide]
Ki ([6]; TSPO binding affinity ref 30): 2.68 nM

CCOc1ccc(-n2c(SCC(C)C)nc3sc4c(c3c2=O)CCN(C(C)=O)C4)cc1 [Compound 11]
ROS Inhibition (%) [1]: −234%

CCCCCCN(CCCCCC)C(=O)Cc1c(-c2ccc(F)cc2)[nH]c2ccccc12 [Compound 1, 2–(2-(4-fluorophenyl)-1H-indol-3-yl)-N,N-dihexylacetamide]
Ki ([6]; TSPO binding affinity ref 29): 3.25 nM

COc1ccc(OC)c(CN(C(C)=O)c2cc(F)ccc2Oc2ccccc2)c1 [Compound 4, N-(2,5-dimethoxybenzyl)-N-(5-fluoro-2-phenoxyphenyl)acetamide]
IC50 ([6]; TSPO binding affinity ref 31): 1.6 nM

CN1C(=O)CN=C(c2ccc(Cl)cc2)c2cc(Cl)ccc21 [Compound 5, 7-chloro-5–(4-chlorophenyl)-1-methyl-1,3-dihydro-2H-benzo[e][1,4]diazepin-2-one]
Ki ([6]; TSPO binding affinity ref 32): 1.02 nM

COc1ccc(CNC(=O)C(c2cccnc2)N(C(=O)c2csnn2)c2ccc(C(C)(C)C)cc2)cc1 (stereo not shown) [Compound 8]
inhibition at 5 µM [1]: -10% | viability at 24 h, 5 µM [2]: 34%

CCOc1ccc(-c2cc(C(=O)NCCCN(CC)CC)c3ccccc3n2)cc1 [VH022]
Recovery of ΔΨm (%) [7]: 36%

COc1ccc(CNC(=O)c2cc(OCc3ccc(C)cc3)nc3ccccc23)c(OC)c1 [VH028]
Recovery of ΔΨm (%) [7]: 51%

CCc1ccc(-c2cc(C)no2)cc1S(=O)(=O)Nc1cc(OC)cc(OC)c1 [VH021]
Recovery of ΔΨm (%) [7]: 42%

CC(C)CN(CCCNC(=O)c1cc(Nc2ccccc2)nc2ccccc12)CC(C)C [VH027]
Recovery of ΔΨm (%) [7]: 25%

CCOc1ccc(-c2cc(C(=O)NCc3cccc(OC)c3)c3ccccc3n2)cc1 [VH025]
Recovery of ΔΨm (%) [7]: 12%

CCN1CCCC1CNC(=O)c1cc(Nc2ccc(C)c(C)c2)nc2ccccc12 (stereo not shown) [VH023]
Recovery of ΔΨm (%) [7]: 62%

CCOc1ccc(-n2c(SC)nc3sc4c(c3c2=O)CCN(C(C)=O)C4)cc1 [Compound 10]
ROS Inhibition (%) [1]: −177% | MTT Viability (%) [8]: 87%
